ChEMBL document CHEMBL1128659, “Tetramic acids as novel glycine site antagonists” (Bioorg Med Chem Lett, 1995)

Experiments:
[1] = pKa value was measured; format: physicochemical
[2] = target: Glutamate receptor ionotropic, NMDA 1 (Rattus norvegicus) (UniProt P35439); assay: Inhibition of binding affinity of [3H]L-689,560 to the strychnine insensitive glycine site on rat brain membranes at a concentration of 100 uM; format: cell membranes; conditions: Membrane
[3] = target: Glutamate receptor ionotropic, NMDA 1 (Rattus norvegicus, UniProt P35439); assay: Inhibition of binding affinity of [3H]L-689,560 to the strychnine insensitive glycine site on rat brain membranes; format: cell membranes, Membrane
[4] = species: Rattus norvegicus; assay: Inhibition of N-Methyl-D-aspartate (NMDA)-induced depolarizations in rat cortical slices; format: functional

Row | SMILES | pKa [1] | inhibition [2] | IC50 [3] | Kb [4]
1 | O=C1C=C(O)CN1 | 6.4 |  |  | 
2 | O=C1N/C(=C/C2CC2)C(O)=C1c1ccccc1 |  | 18% |  | 
3 | O=C1N/C(=C\C2CC2)C(O)=C1c1ccccc1 |  |  | 9.5 µM | 
4 | C=C(C)COc1cccc(C2=C(O)/C(=C\CC)NC2=O)c1 |  |  | 3 µM | 15.8 µM
5 | O=C1N/C(=C\c2ccccc2)C(O)=C1c1ccccc1 |  |  | 24.2 µM | 
6 | CCC/C=C1\NC(=O)C(c2ccccc2)=C1O |  |  | 15.7 µM | 154 µM
7 | CC/C=C1/NC(=O)C(c2cccc(Oc3ccccc3)c2)=C1O |  |  | 0.7 µM | 6.15 µM
8 | O=c1cc(O)c2ccc(Cl)cc2[nH]1 | 5.8 |  |  | 
9 | CC/C=C1/NC(=O)C(c2ccccc2)=C1O | 4.6 |  | 45.5 µM | 115 µM
